Laboratory results taken from patent publication US20230157950A1, “OROMUCOSAL FILM COMPOSITIONS COMPRISING EPINEPHRINE PARTICLES” (ReForm Therapeutics Ltd., priority 2021, published 2023).

Settings: acetone, ethanol, methanol, isopropyl alcohol, alkaline water-based solvents, 25° C. and 45° C.

time for which size and structure of epinephrine particles is maintained in solvents/dispersants: at least 6 hours
solubility of epinephrine particles in the selected solvents/dispersants (up to 6 hours, SEM): none or very limited solubility
Structure (SMILES): CNC[C@H](O)c1ccc(O)c(O)c1 [Epinephrine base particles, Epinephrine base]
